Results: US20240041042A1, “1-(PYRIDYL)-5-AZINYLPYRAZOLE DERIVATIVES, AND THEIR USE FOR CONTROL OF UNDESIRED PLANT GROWTH” (Bayer Aktiengesellschaft, priority 2020, published 2024)

Experiments:
Format in all cases: in vivo
[1] = test system: Pharbitis purpurea (PHBPU); test: Post-emergence herbicidal action against PHBPU
Procedure, shortened: (§1)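 Values are percent visual activity (0% like control, 100% plants dead) after about 3 weeks in the greenhouse. Treatment: post-emergence spray at one-leaf stage, 600 l/ha spray volume, 0.5% additive, doses 320 g/ha or lower.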

Viola tricolor (VIOTR) [2] = test: Post-emergence herbicidal action against VIOTR
Procedure, shortened: as §1

[3] = test system: Alopecurus myosuroides (ALOMY); test: Post-emergence herbicidal action against ALOMY; conditions: visual rating about 3 weeks after treatment vs untreated controls (100% = plants have died, 0% = like control plants)
Procedure, shortened: as §1

[4] = test system: Polygonum convolvulus (POLCO); test: Pre-emergence herbicidal action against POLCO
Procedure, shortened: (§2)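 Pre-emergence soil-surface spray, WP/EC formulation, 0.5% additive, 600 l/ha water, rates of 320 g/ha or lower. Greenhouse, ~3 wk. Visual score, % of untreated control (100% = plants dead, 0% = like control).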

[5] = test system: Polygonum convolvulus (POLCO); test: Post-emergence herbicidal action against POLCO; conditions: dosage 320 g/ha
Procedure, shortened: as §1

[6] = test system: Echinochloa crus-galli (ECHCG); test: Pre-emergence herbicidal action against ECHCG
Procedure, shortened: as §2

[7] = test system: Pharbitis purpurea (PHBPU); test: Pre-emergence herbicidal action against PHBPU
Procedure, shortened: as §2

Setaria viridis (SETVI) [8] = test: Pre-emergence herbicidal action against SETVI
Procedure, shortened: as §2

Avena fatua (AVEFA) [9] = test: Post-emergence herbicidal action against AVEFA; conditions: visual rating about 3 weeks after treatment
Procedure, shortened: as §1

Lolium rigidum (LOLRI) [10] = test: Pre-emergence herbicidal action against LOLRI
Procedure, shortened: as §2

Setaria viridis (SETVI) [11] = test: Post-emergence herbicidal action against SETVI
Procedure, shortened: as §1

[12] = test system: Amaranthus retroflexus (AMARE); test: Pre-emergence herbicidal action against AMARE; conditions: visual scoring after about 3 weeks vs untreated controls
Procedure, shortened: as §2

[13] = test system: Verconica persica (VERPE); test: Post-emergence herbicidal action against VERPE
Procedure, shortened: as §1

[14] = test system: Abutilon theophrasti (ABUTH); test: Pre-emergence herbicidal action against ABUTH; conditions: Dosage column 320 g/ha (title prints 3200 g/ha); scored visually after about 3 weeks; 100% = plants have died
Source text: Seeds of monocotyledonous and dicotyledonous weed plants and crop plants are placed in plastic or organic planting pots and covered with soil. The compounds of the invention, formulated in the form of wettable powders (WP) or as emulsion concentrates (EC), are then applied to the surface of the covering soil as aqueous suspension or emulsion with addition of 0.5% additive at a water application rate equivalent to 600 l/ha. After the treatment, the pots are placed in a greenhouse and kept under good growth conditions for the trial plants. After about 3 weeks, the effect of the preparations is scored visually in comparison with untreated controls as percentages. For example, 100% activity=the plants have died, 0% activity=like control plants.
Tables A1 to A13 below show the effects of selected compounds of the general formula (I) on various harmful plants and at an application rate corresponding to 320 g/ha or lower, which were obtained by the experimental procedure mentioned above. The appendices “a”, “b” and “c” give differentiation by dosage used with otherwise the same harmful plants tested.

[15] = test system: Matricaria inodora (MATIN); test: Pre-emergence herbicidal action against MATIN
Procedure, shortened: as §2

[16] = test system: Amaranthus retroflexus (AMARE); test: Post-emergence herbicidal action against AMARE
Procedure, shortened: as §1

Viola tricolor (VIOTR) [17] = test: Pre-emergence herbicidal action against VIOTR
Procedure, shortened: as §2

Avena fatua (AVEFA) [18] = test: Pre-emergence herbicidal action against AVEFA; conditions: visual scoring after about 3 weeks vs untreated controls
Procedure, shortened: as §2

[19] = test system: Alopecurus myosuroides (ALOMY); test: Pre-emergence herbicidal action against ALOMY; conditions: scored visually after about 3 weeks, 100% = plants have died
Procedure, shortened: as §2

[20] = test system: Echinochloa crus-galli (ECHCG); test: Post-emergence herbicidal action against ECHCG
Procedure, shortened: as §1

[21] = test system: Verconica persica (VERPE); test: Pre-emergence herbicidal action against VERPE
Procedure, shortened: as §2

Lolium rigidum (LOLRI) [22] = test: Post-emergence herbicidal action against LOLRI
Procedure, shortened: as §1

[23] = test system: Abutilon theophrasti (ABUTH); test: Post-emergence herbicidal action against ABUTH; conditions: 320 g/ha, visual rating about 3 weeks after treatment vs untreated controls (100% = plants have died, 0% = like control plants)
Procedure, shortened: as §1

Row | Compound | Post-emergence action against PHBPU in % ([1]; dosage 80 g/ha) | Post-emergence action against PHBPU in % ([1]; dosage 320 g/ha) | Post-emergence action against VIOTR in % (Viola tricolor (VIOTR) [2]; 320 g/ha) | Post-emergence action against ALOMY in % ([3]; 320 g/ha) | Pre-emergence action against POLCO in % ([4]; dosage 80 g/ha) | Pre-emergence action against POLCO in % ([4]; dosage 320 g/ha) | Pre-emergence action against ECHCG in % ([6]; dosage 320 g/ha) | Pre-emergence action against PHBPU in % ([7]; dosage 320 g/ha) | Pre-emergence action against SETVI in % (Setaria viridis (SETVI) [8]; dosage 320 g/ha) | Post-emergence action against AVEFA in % (Avena fatua (AVEFA) [9]; 320 g/ha) | Pre-emergence action against LOLRI in % (Lolium rigidum (LOLRI) [10]; dosage 80 g/ha) | Pre-emergence action against LOLRI in % (Lolium rigidum (LOLRI) [10]; dosage 320 g/ha) | Post-emergence action against SETVI in % (Setaria viridis (SETVI) [11]; dosage 320 g/ha) | Pre-emergence action against AMARE in % ([12]; 80 g/ha) | Pre-emergence action against AMARE in % ([12]; 320 g/ha) | Post-emergence action against VERPE in % ([13]; 320 g/ha, VERPE) | Pre-emergence action against ABUTH [14] | Pre-emergence action against MATIN in % ([15]; dosage 320 g/ha) | Pre-emergence action against VIOTR in % (Viola tricolor (VIOTR) [17]; 320 g/ha, Viola tricolor) | Pre-emergence action against VIOTR in % (Viola tricolor (VIOTR) [17]; dosage 80 g/ha) | also measured
1 | C[C@@H](Oc1nn(-c2ccccn2)c(-c2cncnc2)c1Cl)C(=O)O [Example I-20] | 90% | 90% | 90% | 100% | 90% | 100% | 100% | 90% | 100% | 90% | 100% | 100% | 90% | 100% | 100% | 80% | 90% | 100% | 100% | 100% | Post-emergence action against VIOTR in % (Viola tricolor (VIOTR) [2]; 80 g/ha): 90%; Post-emergence action against ALOMY in % ([3]; 80 g/ha): 100%; Post-emergence action against POLCO in % [5]: 80%; Post-emergence action against AVEFA in % (Avena fatua (AVEFA) [9]; 80 g/ha): 90%; Post-emergence action against AMARE in % ([16]; 80 g/ha, visual rating about 3 weeks after treatment vs untreated controls (100% = plants have died, 0% = like control plants)): 90%; Post-emergence action against AMARE in % ([16]; 320 g/ha, visual rating about 3 weeks after treatment): 90%; Pre-emergence action against AVEFA in % (Avena fatua (AVEFA) [18]; 80 g/ha): 90%; Pre-emergence action against AVEFA in % (Avena fatua (AVEFA) [18]; 320 g/ha): 100%; Pre-emergence action against ALOMY ([19]; 80 g/ha): 90%; Pre-emergence action against ALOMY ([19]; 320 g/ha): 100%; Post-emergence action against ECHCG in % ([20]; dosage 320 g/ha): 80%; Pre-emergence action against VERPE in % ([21]; dosage 320 g/ha): 100%; Post-emergence action against LOLRI in % (Lolium rigidum (LOLRI) [22]; dosage 80 g/ha): 90%; Post-emergence action against LOLRI in % (Lolium rigidum (LOLRI) [22]; dosage 320 g/ha): 90%
2 | CCOC(=O)[C@@H](C)Oc1nn(-c2nc(F)ccc2F)c(-c2cncc(F)c2)c1Br [Example I-388] | 80% | 100% | 80% | 80% | 90% | 90% | 100% | 90% | 100% | 80% | 80% | 100% | 90% | 90% | 100% | 80% | 90% | 90% | 100% | 100% | Post-emergence action against ABUTH in % [23]: 80%; Pre-emergence action against ECHCG in % ([6]; dosage 80 g/ha): 80%; Pre-emergence action against PHBPU in % ([7]; dosage 80 g/ha): 90%; Pre-emergence action against SETVI in % (Setaria viridis (SETVI) [8]; dosage 80 g/ha): 90%; Post-emergence action against SETVI in % (Setaria viridis (SETVI) [11]; dosage 80 g/ha): 90%; Post-emergence action against VERPE in % ([13]; dosage 80 g/ha): 80%; Pre-emergence action against MATIN in % ([15]; dosage 80 g/ha): 90%; Pre-emergence action against AVEFA in % (Avena fatua (AVEFA) [18]; 320 g/ha): 90%; Pre-emergence action against ALOMY ([19]; 80 g/ha): 80%; Pre-emergence action against ALOMY ([19]; 320 g/ha): 100%; Post-emergence action against ECHCG in % ([20]; dosage 80 g/ha): 90%; Post-emergence action against ECHCG in % ([20]; dosage 320 g/ha): 90%; Pre-emergence action against VERPE in % ([21]; dosage 80 g/ha): 90%; Pre-emergence action against VERPE in % ([21]; dosage 320 g/ha): 100%; Post-emergence action against LOLRI in % (Lolium rigidum (LOLRI) [22]; dosage 80 g/ha): 80%; Post-emergence action against LOLRI in % (Lolium rigidum (LOLRI) [22]; dosage 320 g/ha): 80%
